Results on 16 molecules are retold here after patent publication US8530493B2, “Indolopyridines as Eg5 kinesin modulators” (4SC AG, priority 2006, dated 2013).

Experiment [1] concerns RKO p27 uninduced (proliferating) colon adenocarcinoma cells. The experiment in a line: Alamar Blue cell viability assay, RKO p27 uninduced (proliferating). The format is cell-based. The settings on record: Homo sapiens, RKOp27, Table B1, anti-proliferative/cytotoxic activity, 72 hours, read-out: −log EC50 RKO p27 uninduced (proliferating) (converted). As for the experimental part: The anti-proliferative/cytotoxic activity of the compounds described herein can be tested on subclones of RKO human colon adenocarcinoma cells (Schmidt et al., Oncogene 19, 2423-2429; 2000) using the Alamar Blue cell viability assay (described in O'Brien et al. Eur J Biochem 267, 5421-5426, 2000). The compounds are dissolved as 10 mM solutions in DMSO and subsequently diluted in semi-logarithmic steps. DMSO dilutions are further diluted 1:100 into Dulbecco's modified Eagle's medium (DMEM) containing 10% fetal calf serum to a final concentration twice as much as the final concentration in the test. RKO subclones are seeded into 96 well flat bottom plates at a density of 4000 cells per well in a volume of 50 μl per well. 24 hours after seeding the 50 μl each of the compound dilutions in DMEM medium are added into each well of the 96 well plate. Each compound dilution is tested as triplicates. Wells containing untreated control cells are filled with 50 μl DMEM medium containing 1% DMSO. The cells are then incubated with the substances for 72 hours at 37° C. in a humidified atmosphere containing 5% carbon dioxide. To determine the viability of the cells, 10 μl of an Alamar Blue solution (Biosource) are added and the fluorescence is measured at an extinction of 544 nm and an emission of 590 nm. For the calculation of the cell viability the emission value from untreated cells is set as 100% viability and the emission rates of treated cells are set in relation to the values of untreated cells. Viabilities are expressed as % values. The Graphpad Prism program is used for the calculation of EC50 values for anti-proliferative/cytotoxic activity out of the obtained dose-response curves.
(§1) To determine the cell cycle specific mode of action, subclones of RKO colon adenocarcinoma cells (RKOp21 or RKOp27 as described by Schmidt et al. in Oncogene 19, 2423-2429; 2000) are seeded into 96 well flat bottom plates at a density of 16000 cells per well in a volume of 50 μl per well in DMEM growth medium with 10% FCS containing 10 μM Ponasterone A. 24 hours after seeding the 50 μl each of the compound dilutions in DMEM medium are added into each well of the 96-well plate. Each compound dilution is tested as triplicates. Wells containing untreated control cells are filled with 50 μl DMEM medium containing 1% DMSO. The cells are then incubated with the substances for 72 hours at 37° C. in a humidified atmosphere containing 5% carbon dioxide. To determine the viability of the cells, 10 μl of an Alamar Blue solution (Biosource) are added and the fluorescence is measured at an extinction of 544 nm and an emission of 590 nm. For the calculation of the cell viability the emission value from untreated cells is set as 100% viability and the emission rates of treated cells are set in relation to the values of untreated cells. Viabilities are expressed as % values. The Graphpad Prism program (GraphPad Software, Inc) is used for the calculation of EC50 values out of the obtained dose-response curves. Viability is compared of proliferating cells grown in the absence of the inducer Ponasterone A, versus viability of cells arrested by the expression of ectopic p27Kip1 induced by Ponasterone A.
(§2) Representative values for anti-proliferation/cytotoxicity [measured as −log EC50 (mol/l)] determined in the aforementioned assays follow from the following tables B1, B2 and B3, in which the numbers of the compounds correspond to the numbers of the examples.

Experiment [2] has as its system RKO p27 induced (arrested) colon adenocarcinoma cells. The experiment in a line: Alamar Blue cell viability assay, RKO p27 induced by Ponasterone A (arrested). Conditions: Homo sapiens, RKOp27, Table B1, cells arrested by Ponasterone A-induced p27Kip1, 72 hours, read-out: −log EC50 RKO p27 induced (arrested) (converted). In kind it is cell-based. How it is done: as §1, §2

The EC50 is the midpoint of the concentration-response curve.

For the molecule `COc1ccc2[nH]c3c(c2c1)C[C@@]1(C)C(=O)N(CCNCC2CC2)C(=O)N1[C@@H]3c1cccc(O)c1` (racemic) [Example 48, (3aSR,10RS)-2-[2-(Cyclopropylmethyl-amino)-ethyl]-10-(3-hydroxy-phenyl)-6-methoxy-3a-methyl-3a,4,9,10-tetrahydro-2,9,10a-triaza-cyclopenta[b]fluorene-1,3-dione], the EC50 in experiment [1] was at most 39.8 nM; in experiment [2] it was at least 3160 nM.

Regarding `COCCOc1ccc2[nH]c3c(c2c1)C[C@@]1(C)C(=O)N(CCN(C)C)C(=O)N1[C@@H]3c1cccc(O)c1` (racemic) [Example 6, (3aSR,10RS)-2-(2-Dimethylamino-ethyl)-10-(3-hydroxy-phenyl)-6-(2-methoxy-ethoxy)-3a-methyl-3a,4,9,10-tetrahydro-2,9,10a-triaza-cyclopenta[b]fluorene-1,3-dione], the EC50 is at most 39.8 nM in experiment [1] and at least 3160 nM in experiment [2].

As to `CN1C(=O)N2[C@H](c3cccc(O)c3)c3[nH]c4ccc(Cl)cc4c3C[C@@]2(C)C1=O` (racemic) [Example 5, (3aSR,10RS)-6-Chloro-10-(3-hydroxy-phenyl)-2,3a-dimethyl-3a,4,9,10-tetrahydro-2,9,10a-triaza-cyclopenta[b]fluorene-1,3-dione], the results for the concentration giving a half-maximal response (EC50) in experiment [1] and in experiment [2] were 39.8 to 251 nM and at least 3160 nM, respectively.

For `CC[C@@]12Cc3c([nH]c4ccc(OC)cc34)[C@@H](c3cccc(O)c3)N1C(=O)N(CCN(C)C)C2=O` (racemic) [Example 18, (3aSR,10RS)-2-(2-Dimethylamino-ethyl)-3a-ethyl-10-(3-hydroxy-phenyl)-6-methoxy-3a,4,9,10-tetrahydro-2,9,10a-triaza-cyclopenta[b]fluorene-1,3-dione], the concentration giving a half-maximal response (EC50) in experiment [1] was at most 39.8 nM; in experiment [2], at least 3160 nM.

`C[C@@]12Cc3c([nH]c4ccc(Cl)cc34)[C@@H](c3cccc(O)c3)N1C(=O)N(CCN)C2=O` (racemic) [Example 30, (3aSR,10RS)-2-(2-Amino-ethyl)-6-chloro-10-(3-hydroxy-phenyl)-3a-methyl-3a,4,9,10-tetrahydro-2,9,10a-triaza-cyclopenta[b]fluorene-1,3-dione]: the EC50 is at most 39.8 nM in experiment [1] and at least 3160 nM in experiment [2].

For the molecule `CCOc1ccc2[nH]c3c(c2c1)C[C@@]1(C)C(=O)N(C)C(=O)N1[C@@H]3c1cccc(O)c1` (racemic) [Example 1, (3aSR,10RS)-6-Ethoxy-10-(3-hydroxy-phenyl)-2,3a-dimethyl-3a,4,9,10-tetrahydro-2,9,10a-triaza-cyclopenta[b]fluorene-1,3-dione], the concentration for a half-maximal effect (EC50) is 39.8 to 251 nM in experiment [1] and at least 3160 nM in experiment [2].

`COc1ccc2[nH]c3c(c2c1)C[C@@]1(C)C(=O)N(CCCn2ccnc2)C(=O)N1[C@@H]3c1cccc(O)c1` (racemic) [Example 20, (3aSR,10RS)-10-(3-Hydroxy-phenyl)-2-(3-imidazol-1-yl-propyl)-6-methoxy-3a-methyl-3a,4,9,10-tetrahydro-2,9,10a-triaza-cyclopenta[b]fluorene-1,3-dione]: the half-maximal effective concentration (EC50) in experiment [1] was at most 39.8 nM; in experiment [2], at least 3160 nM.

Take `CNCCN1C(=O)N2[C@H](c3cccc(O)c3)c3[nH]c4ccc(OC)cc4c3C[C@@]2(C)C1=O` (racemic) [Example 27, (3aSR,10RS)-10-(3-Hydroxy-phenyl)-6-methoxy-3a-methyl-2-(2-methylamino-ethyl)-3a,4,9,10-tetrahydro-2,9,10a-triaza-cyclopenta[b]fluorene-1,3-dione]: the EC50 in experiment [1] is at most 39.8 nM; in experiment [2], at least 3160 nM.

Turning to `CCOc1ccc2[nH]c3c(c2c1)C[C@@]1(C)C(=O)N(CCN2CCC2)C(=O)N1[C@@H]3c1cccc(O)c1` (racemic) [Example 46, (3aSR,10RS)-2-(2-Azetidin-1-yl-ethyl)-6-ethoxy-10-(3-hydroxy-phenyl)-3a-methyl-3a,4,9,10-tetrahydro-2,9,10a-triaza-cyclopenta[b]fluorene-1,3-dione], the figures for the EC50 in experiment [1] and in experiment [2] were at most 39.8 nM and at least 3160 nM, respectively.

For the molecule `COc1ccc2[nH]c3c(c2c1)C[C@@]1(C)C(=O)N(CCN(C)C)C(=O)N1[C@@H]3c1cccc(O)c1` (single isomer, unassigned) [Example 7b, (−)-2-(2-Dimethylamino-ethyl)-10-(3-hydroxy-phenyl)-6-methoxy-3a-methyl-3a,4,9,10-tetrahydro-2,9,10a-triaza-cyclopenta[b]fluorene-1,3-dione], the EC50 in experiment [1] is at most 39.8 nM; in experiment [2] it was at least 3160 nM.

For `C[C@@]12Cc3c([nH]c4ccc(OC(F)F)cc34)[C@@H](c3cccc(O)c3)N1C(=O)N(CCN1CCC1)C2=O` (racemic) [Example 44, (3aSR,10RS)-2-(2-Azetidin-1-yl-ethyl)-6-(1,1-difluoro-methoxy)-10-(3-hydroxy-phenyl)-3a-methyl-3a,4,9,10-tetrahydro-2,9,10a-triaza-cyclopenta[b]fluorene-1,3-dione], the EC50 in experiment [1] is at most 39.8 nM; in experiment [2] it was at least 3160 nM.

Take `COc1ccc2[nH]c3c(c2c1)C[C@@]1(C)C(=O)N(CCNCC(C)C)C(=O)N1[C@@H]3c1cccc(O)c1` (racemic) [Example 49, (3aSR,10RS)-10-(3-Hydroxy-phenyl)-2-(2-isobutylamino-ethyl)-6-methoxy-3a-methyl-3a,4,9,10-tetrahydro-2,9,10a-triaza-cyclopenta[b]fluorene-1,3-dione]: the EC50 was at most 39.8 nM in experiment [1] and at least 3160 nM in experiment [2].

Regarding `CNCCN1C(=O)N2[C@H](c3cccc(O)c3)c3[nH]c4ccc(OC(F)F)cc4c3C[C@@]2(C)C1=O` (racemic) [Example 42, (3aSR,10RS)-6-(1,1-Difluoro-methoxy)-10-(3-hydroxy-phenyl)-3a-methyl-2-(2-methylaminoethyl)-3a,4,9,10-tetrahydro-2,9,10a-triaza-cyclopenta[b]fluorene-1,3-dione], the EC50 in experiment [1] is at most 39.8 nM; in experiment [2] it was at least 3160 nM.

For the molecule `CC[C@@]12Cc3c([nH]c4ccc(OC)cc34)[C@@H](c3cccc(O)c3)N1C(=O)N(CCCN(C)C)C2=O` (racemic) [Example 19, (3aSR,10RS)-2-(3-Dimethylamino-propyl)-3a-ethyl-10-(3-hydroxy-phenyl)-6-methoxy-3a,4,9,10-tetrahydro-2,9,10a-triaza-cyclopenta[b]fluorene-1,3-dione], the concentration giving a half-maximal response (EC50) is at most 39.8 nM in experiment [1] and at least 3160 nM in experiment [2].

Turning to `C[C@@]12Cc3c([nH]c4ccc(Cl)cc34)[C@@H](c3cccc(O)c3)N1C(=O)N(CCN1CCC1)C2=O` (racemic) [Example 29, (3aSR,10RS)-2-(2-Azetidin-1-yl-ethyl)-6-chloro-10-(3-hydroxy-phenyl)-3a-methyl-3a,4,9,10-tetrahydro-2,9,10a-triaza-cyclopenta[b]fluorene-1,3-dione], the 50% effective concentration (EC50) was at most 39.8 nM in experiment [1] and at least 3160 nM in experiment [2].

For `COc1ccc2[nH]c3c(c2c1)C[C@@]1(C)C(=O)N(CCN)C(=O)N1[C@@H]3c1cccc(O)c1` (racemic) [Example 25, (3aSR,10RS)-2-(2-Amino-ethyl)-10-(3-hydroxy-phenyl)-6-methoxy-3a-methyl-3a,4,9,10-tetrahydro-2,9,10a-triaza-cyclopenta[b]fluorene-1,3-dione], the values for the concentration for a half-maximal effect (EC50) in experiment [1] and in experiment [2] were at most 39.8 nM and at least 3160 nM, respectively.
